± gives the expanded uncertainty stated by the source.
Assay: molar heat capacity at saturation pressure
Details: Crystal 4, Small (less than 1 g) adiabatic calorimetry

CCCCn1cc[n+](C)c1.O=[N+]([O-])[O-] [1-butyl-3-methylimidazolium nitrate]
Details	molar heat capacity [J/K/mol]
5.05 K	0.5514 ± 0.032
5.29 K	0.65 ± 0.032
5.54 K	0.7586 ± 0.034
5.8 K	0.8834 ± 0.036
6.06 K	1.024 ± 0.04
6.36 K	1.195 ± 0.042
6.69 K	1.409 ± 0.046
7.03 K	1.636 ± 0.04
7.37 K	1.896 ± 0.054
7.72 K	2.169 ± 0.058
8.08 K	2.473 ± 0.064
8.44 K	2.803 ± 0.068
8.8 K	3.145 ± 0.074
9.16 K	3.525 ± 0.08
9.53 K	3.922 ± 0.087
9.91 K	4.346 ± 0.093
10.39 K	4.934 ± 0.1
10.97 K	5.66 ± 0.11
11.56 K	6.445 ± 0.12
12.15 K	7.288 ± 0.13
12.75 K	8.194 ± 0.14
13.35 K	9.123 ± 0.16
13.96 K	10.11 ± 0.17
14.57 K	11.12 ± 0.18
15.18 K	12.21 ± 0.19
15.91 K	13.62 ± 0.21
16.74 K	15.21 ± 0.23
17.58 K	16.85 ± 0.24
18.42 K	18.5 ± 0.26
19.27 K	20.2 ± 0.26
20.12 K	21.95 ± 0.28
21.25 K	24.37 ± 0.3
22.68 K	27.47 ± 0.32
24.11 K	30.69 ± 0.34
25.54 K	33.91 ± 0.36
26.98 K	37.09 ± 0.36
28.44 K	40.37 ± 0.36
29.9 K	43.58 ± 0.38
31.35 K	46.78 ± 0.34
32.99 K	50.29 ± 0.36
34.79 K	54.05 ± 0.38
36.58 K	57.69 ± 0.38
38.37 K	61.25 ± 0.4
40.17 K	64.77 ± 0.42
42.06 K	68.4 ± 0.44
44.07 K	72.18 ± 0.46
46.09 K	75.84 ± 0.48
48.1 K	79.42 ± 0.5
50.1 K	82.76 ± 0.52
52.11 K	86.06 ± 0.52
54.13 K	89.28 ± 0.54
56.14 K	92.32 ± 0.56
58.16 K	95.28 ± 0.58
60.19 K	98.2 ± 0.58
62.22 K	101.03 ± 0.6
64.26 K	103.75 ± 0.62
66.29 K	106.43 ± 0.62
68.34 K	109.04 ± 0.64
70.38 K	111.5 ± 0.66
72.42 K	113.97 ± 0.66
74.46 K	116.39 ± 0.68
76.5 K	118.68 ± 0.68
78.55 K	120.96 ± 0.7
80.3 K	122.59 ± 0.7
80.56 K	122.99 ± 0.72
80.61 K	123.11 ± 0.72
82.15 K	124.42 ± 0.72
82.41 K	124.84 ± 0.72
82.67 K	125.14 ± 0.72
84.01 K	126.23 ± 0.72
84.27 K	126.67 ± 0.72
84.72 K	127.15 ± 0.74
85.89 K	128.02 ± 0.74
86.14 K	128.46 ± 0.74
87.78 K	129.91 ± 0.74
88.03 K	130.27 ± 0.74
89.67 K	131.68 ± 0.76
89.92 K	132.02 ± 0.76
91.58 K	133.45 ± 0.72
91.83 K	133.79 ± 0.74
93.5 K	135.16 ± 0.74
93.75 K	135.5 ± 0.74
95.43 K	136.91 ± 0.74
95.68 K	137.25 ± 0.74
97.36 K	138.62 ± 0.76
97.62 K	138.98 ± 0.76
99.3 K	140.37 ± 0.76
99.56 K	140.68 ± 0.76
101.25 K	142.08 ± 0.76
102.25 K	142.93 ± 0.76
103.21 K	143.75 ± 0.78
104.22 K	144.6 ± 0.78
105.18 K	145.34 ± 0.78
106.19 K	146.25 ± 0.78
107.15 K	146.93 ± 0.78
108.17 K	147.88 ± 0.78
109.13 K	148.52 ± 0.78
110.16 K	149.43 ± 0.8
111.11 K	150.07 ± 0.8
112.15 K	150.98 ± 0.8
113.1 K	151.62 ± 0.8
114.14 K	152.51 ± 0.8
115.1 K	153.15 ± 0.8
116.14 K	154.02 ± 0.83
117.1 K	154.68 ± 0.83
118.14 K	155.53 ± 0.83
119.11 K	156.13 ± 0.83
120.15 K	157.05 ± 0.83
121.12 K	157.68 ± 0.83
122.17 K	158.58 ± 0.83
123.13 K	159.23 ± 0.85
124.19 K	160.07 ± 0.85
125.15 K	160.68 ± 0.85
126.21 K	161.54 ± 0.85
127.17 K	162.15 ± 0.85
128.23 K	163.05 ± 0.85
129.2 K	163.65 ± 0.85
130.26 K	164.54 ± 0.87
131.23 K	165.12 ± 0.87
132.3 K	166.01 ± 0.87
133.26 K	166.61 ± 0.87
134.34 K	167.5 ± 0.87
135.3 K	168.06 ± 0.87
136.37 K	168.99 ± 0.89
137.33 K	169.59 ± 0.89
138.41 K	170.52 ± 0.89
139.37 K	171.1 ± 0.89
140.46 K	172.05 ± 0.89
141.42 K	172.55 ± 0.89
142.5 K	173.51 ± 0.89
143.46 K	174.12 ± 0.91
144.54 K	175.06 ± 0.91
145.5 K	175.61 ± 0.91
146.58 K	176.59 ± 0.91
147.55 K	177.16 ± 0.91
148.63 K	178.1 ± 0.91
149.59 K	178.69 ± 0.91
150.67 K	179.61 ± 0.93
151.64 K	180.2 ± 0.93
152.72 K	181.14 ± 0.93
153.69 K	181.74 ± 0.93
154.76 K	182.69 ± 0.93
155.74 K	183.23 ± 0.93
156.81 K	184.24 ± 0.95
157.78 K	184.76 ± 0.95
158.86 K	185.75 ± 0.95
159.83 K	186.31 ± 0.95
160.91 K	187.26 ± 0.95
161.87 K	187.84 ± 0.95
162.96 K	188.75 ± 0.95
163.91 K	189.21 ± 0.97
165 K	190.24 ± 0.97
165.95 K	190.7 ± 0.97
167.05 K	191.85 ± 0.97
168 K	192.27 ± 0.97
169.09 K	193.36 ± 0.97
170.04 K	193.84 ± 0.97
171.13 K	194.94 ± 0.99
172.08 K	195.39 ± 0.99
173.17 K	196.55 ± 0.99
174.12 K	196.86 ± 0.99
175.21 K	198.14 ± 0.99
176.16 K	198.59 ± 0.99
177.25 K	199.73 ± 1
178.2 K	200.16 ± 1
179.28 K	201.42 ± 1
180.24 K	201.83 ± 1
181.31 K	203.03 ± 1
182.28 K	203.44 ± 1
183.34 K	204.64 ± 1
184.31 K	205.05 ± 1
185.37 K	206.25 ± 1
186.34 K	206.66 ± 1
187.39 K	207.86 ± 1
188.36 K	208.47 ± 1
189.42 K	209.67 ± 1
190.39 K	210.08 ± 1
191.44 K	211.28 ± 1
192.41 K	211.89 ± 1
193.45 K	212.89 ± 1
194.43 K	213.5 ± 1
195.47 K	214.71 ± 1
196.44 K	215.31 ± 1
197.48 K	216.31 ± 1
198.45 K	216.92 ± 1
199.49 K	218.13 ± 1
200.46 K	218.73 ± 1
201.55 K	219.94 ± 1
202.53 K	220.54 ± 1
203.67 K	221.75 ± 1
204.65 K	222.35 ± 1
205.78 K	223.56 ± 1
206.76 K	224.16 ± 1
207.89 K	225.37 ± 1.2
208.87 K	225.97 ± 1.2
210 K	227.38 ± 1.2
210.98 K	227.78 ± 1.2
212.11 K	229.19 ± 1.2
213.09 K	229.6 ± 1.2
214.21 K	231 ± 1.2
215.19 K	231.61 ± 1.2
216.3 K	232.82 ± 1.2
217.29 K	233.62 ± 1.2
218.4 K	234.63 ± 1.2
219.38 K	235.63 ± 1.2
220.49 K	236.44 ± 1.2
221.47 K	237.44 ± 1.2
222.58 K	238.25 ± 1.2

Source: the NIST ThermoML archive (doi:10.1016/j.tca.2008.05.002)
